According to patent US10995070B2, “Acetyl-CoA carboxylase modulators” (Monsanto Technology LLC, priority 2013, dated 2021):

Experiments:
[1] = system: Saccharomyces cerevisiae; assay: Yeast growth inhibition assay; type: cell-based; conditions: read-out: S. cerevisiae % growth inhibition
Method: Yeast cells (Ade2 strain) were grown in liquid YPD (1% yeast extract, 2% peptone, 2% dextrose) for 16 hours at 30° C. from previously sub-cultured plates of Saccharomyces cerevisiae. The OD600 of the overnight culture was checked via spectrophotometer and diluted to a concentration of 2×10^4 cells/ml.
Chemistry stocks were dissolved in DMSO to a concentration of 10 mM. Chemistry stocks were further diluted in a 96-well stock plate to obtain final concentrations of […] in 1% DMSO. The final concentrations of the soraphen positive control were 400, 40, and 3.2 nM. The negative controls on each plate included a background subtraction control containing yeast and 1% DMSO (without chemistry) and a second contamination control containing YPD (with no yeast) and 1% DMSO (without chemistry).
98 μl liquid YPD was added to 2 μl diluted stock of DMSO per well and mixed thoroughly. After mixing, 100 μl of the diluted yeast solution was added to bring the final yeast concentration to 1×10^4 cells/ml or 2000 cells per well. An initial spectrophotometric reading at OD600 was conducted on the entire plate and served as the 0 hours time point used to subtract any background. […] […] […] All experiments were conducted in triplicate. Averages were reported along with standard deviation calculation to generate error bars. Each plate contained its own controls and consisted of inoculated+DMSO, non-inoculated+DMSO, and a titration series of soraphen at 400, 40, and 3.2 nM.

[2] = system: Botrytis cinerea; assay: Fungal growth inhibition assay, B. cinerea; type: cell-based; conditions: 48 h
From the text: Spores were isolated from previously sub-cultured plates of Botrytis cinerea, Phytophthora capsici, Fusarium moniliforme, Fusarium viguliforme, Collectotrichum graminicola, and Diplodia maydis. All spores were filtered and collected in a sterile glass bowl to isolate the spores from the mycelia. The isolation and sub-culture plate condition for each pathogen is described below.
Spore isolation for B. cinerea: A 2-3 week old V8 (17%)+CaCO3 (3 g/L)+20 g agar plate was removed from room temperature and the mycelia were treated with 5-10 ml of filter sterilized Triton X 100 (0.05%). The mycelia were scraped to re-suspend the spores. The spores were then collected in a sterile filter bowl containing a fluted piece of filter paper and poured into a conical tube.
After spore isolation, pathogen spores were counted on a hemocytometer to calculate the spores/ml. In 17% V8 liquid media containing 3 g/L CaCO3, isolated spores were diluted to individual concentrations based on the growth curves at 48 hours of each pathogen. The spore concentrations for each pathogen were as follows: B. cinerea—10,000 sp/ml; P. capsici—300 sp/ml; F. monliforme—500 sp/ml; F. virguliforme—500 sp/ml; C. graminicola—3,000 sp/ml; and D. maydis—3,000 sp/ml.
Chemistry stocks were dissolved in DMSO at 2.5 mg/ml. Chemistry was diluted in a 96-well stock plate in five-fold dilutions to obtain a final concentration of 50, 10, and 2 ppm in vitro. The final concentration of the positive control after the five-fold dilutions was as follows: soraphen—0.5, 0.1, and 0.02 ppm. Negative controls on each plate included 2% DMSO, water containing spores and media, and a blank for background subtraction.
In a 96-well plate the spore solution, chemistries, and controls were combined to make the final solution concentrations mentioned above. Upon addition of the chemistry, an OD600 reading was done to assess chemical precipitation. […] Plate readings were repeated at 24 and 48 hrs. […]

Question: With `O=C(O)Cc1ccc(-c2nc3ccccc3c(-c3ccccc3)c2Cl)s1` [Formula Ib-ii, 2-(5-(3-chloro-4-phenylquinolin-2-yl)thiophen-2-yl)acetic acid] as the compound, how does the inhibition at 3.7 µM [1] read?
Answer: 0%

Question: And the inhibition at 11.1 µM [1]?
Answer: 0%

Question: What about the inhibition at 33.3 µM [1] of the same compound?
Answer: 55%

Question: And the inhibition at 100 µM [1]?
Answer: 79%

Question: Which inhibition at 2 ppm ([2]; 2 ppm) does the source give for `O=C(O)Cc1ccc(-c2cc(-c3ccccc3)c3ccccc3n2)s1` [Formula Ib-iv, 2-(5-(4-phenylquinolin-2-yl)thiophen-2-yl)acetic acid] here?
Answer: 0%

Question: What about the inhibition at 10 ppm ([2]; 10 ppm) of the same compound?
Answer: 1%

Question: And the inhibition at 50 ppm ([2]; 50 ppm)?
Answer: 42%

Question: What about the inhibition at 3.7 µM [1] of the same compound?
Answer: 0%

Question: And the inhibition at 11.1 µM [1]?
Answer: 0%

Question: What about the inhibition at 33.3 µM [1] of the same compound?
Answer: 15%

Question: What about the inhibition at 100 µM [1] of the same compound?
Answer: 99%
